According to PubChem BioAssay (NCI):
“And” between values parts separate entries of the source, which are not always exact repeats. Equal entries are not always repeated.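 Assay format: 96-well plates, 48-hour exposure. Here, GI50 denotes the concentration required for 50% inhibition of growth. TGI marks complete inhibition of growth.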

Assays:
Test in all cases: NCI anticancer screen, dose series, 48 h
OVCAR-3 ovarian = system: OVCAR-3 ovarian
MDA-N = system: MDA-N
SN12C renal = system: SN12C renal
M14 melanoma = system: M14 melanoma
HCT-15 colon = system: HCT-15 colon
SF-268 CNS = system: SF-268 CNS
MDA-MB-435 = system: MDA-MB-435
IGROV1 ovarian = system: IGROV1 ovarian
PC-3 prostate = system: PC-3 prostate
DMS 114 small cell lung = system: DMS 114 small cell lung

| SMILES | GI50 (OVCAR-3 ovarian) | TGI (OVCAR-3 ovarian) | GI50 (MDA-N) | TGI (MDA-N) | TGI (SN12C renal) | TGI (M14 melanoma) | GI50 (HCT-15 colon) | TGI (HCT-15 colon) | TGI (SF-268 CNS) | GI50 (MDA-MB-435) | TGI (MDA-MB-435) | GI50 (IGROV1 ovarian) | TGI (IGROV1 ovarian) | GI50 (PC-3 prostate) | TGI (PC-3 prostate) | TGI (DMS 114 small cell lung) | GI50 (SN12C renal) | GI50 (M14 melanoma) | GI50 (SF-268 CNS) |
| --- | --- | --- | --- | --- | --- | --- | --- | --- | --- | --- | --- | --- | --- | --- | --- | --- | --- | --- | --- |
| S=C(N/N=C(/c1ccccc1)c1ccccn1)N1CCCCCC1 | < 0.001 µM | 1.76 µM and 1.23 µM | 0.217 µM | 2.32 µM and 1.72 µM | 1.91 µM | 1.47 µM and 0.26 µM | 0.00327 µM | 2.05 µM and 1.53 µM | 1.96 µM and 2.87 µM | 0.043 µM | 1.59 µM and 1.58 µM | < 0.001 µM | 1.06 µM and 1.98 µM | < 0.001 µM | 1.37 µM and 1.52 µM | – | – | – | – |
| c1ccc2c(c1)[nH]c1c2nc2ncccn21 | – | – | – | – | > 100 µM | > 100 µM | – | – | > 100 µM | – | – | – | > 100 µM | – | – | > 100 µM | – | – | – |
| CC1=C[P+](Cc2ccccc2)(c2ccccc2)CC1 (stereo not given) | – | > 100 µM | – | – | > 100 µM | > 100 µM | – | > 100 µM | – | – | – | – | > 100 µM | – | – | > 100 µM | – | – | – |
| S=c1nc(Cl)cc2[nH]c(Cl)cn12 | – | 6.49 µM | – | 4.56 µM | > 100 µM | > 100 µM | – | > 100 µM | > 100 µM | – | 4.74 µM | – | 30.2 µM | – | > 100 µM | – | – | – | – |
| N#CS.N=C=S.N=C=S.[Cu+2].[NH2-].[NH2-].[NH2-].[NH2-].c1ccc2ncccc2c1 | 21.3 µM | 41.8 µM | > 100 µM | > 100 µM | > 100 µM | > 100 µM | > 100 µM | > 100 µM | > 100 µM | 19.4 µM | 41.3 µM | 55.7 µM | > 100 µM | > 100 µM | > 100 µM | – | > 100 µM | > 100 µM | 49.7 µM |
| COc1cc(O)c2c(c1)C(=O)c1cc3c(c(O)c1C2=O)C(OC1OC(C)C(O)C(O)C1OC)C(OC)C(C)(O)C3=O (stereo not given) | 1.38 µM | 5.83 µM and 2.04 µM | – | – | 7.18 µM and 7.44 µM | 3.65 µM | 2.65 µM | 12.2 µM and 7.35 µM | 15.2 µM and 40.5 µM | – | – | – | 7.16 µM | 2.57 µM | 12.3 µM | 5.24 µM | – | 1.69 µM | 2.56 µM |
| CNC(=O)c1cccc2c(Nc3ccc(NS(C)(=O)=O)cc3OC)c3cccc(C)c3nc12 | – | 5.02 µM | – | – | 0.927 µM | 2.63 µM | – | 2.34 µM | 8.58 µM | – | – | – | 13.2 µM | – | – | 1.25 µM | – | – | – |
| CCOC(=O)C(C)(C)C(O)C(C)C (stereo not given) | – | > 100 µM | – | > 100 µM | > 100 µM | > 100 µM | – | > 100 µM | > 100 µM | – | > 100 µM | – | > 100 µM | – | > 100 µM | – | – | – | – |
| COc1ccc2c(c1OC)OCC(CN(C)C)C2=O (stereo not given) | – | 48.5 µM | – | 32.4 µM | 34 µM | 31.5 µM | – | 36.5 µM | 53.2 µM | – | 34.3 µM | – | 35.4 µM | – | 34.6 µM | – | – | – | – |
| O=S(O)CCCSSc1ccccc1 | – | > 100 µM | – | – | > 100 µM | > 100 µM | – | > 100 µM | > 100 µM | – | – | – | 41.1 µM | – | – | 67.6 µM | – | – | – |
| O=C(NC1C2CC3CC(C2)CC1C3)c1cc(/C=C/c2ccccc2)[nH]c(=S)n1 (stereo not given) | – | > 100 µM | – | – | – | > 100 µM | – | – | > 100 µM | – | – | – | > 100 µM | – | – | > 100 µM | – | – | – |
| COc1ccc2nc3ccccc3c(NCCCN(C)CCCl)c2c1 | – | 2.07 µM | – | 2.02 µM | 1.55 µM | 2.33 µM | – | 8.29 µM | 2.75 µM | – | 1.54 µM | – | 2.21 µM | – | 1.6 µM | 1.68 µM | – | – | – |
| COc1ccc(CNc2nc3cc(N)cc(N)c3nc2-c2ccccc2)cc1 | 2.23 µM | 7.77 µM | 14.2 µM | 27.7 µM | 34.3 µM | 32.2 µM | 15.9 µM | 34.5 µM | 22 µM | 10.1 µM | 21.7 µM | 12.9 µM | 27.1 µM | 10.3 µM | 27.3 µM | – | 16.8 µM | 18.1 µM | 9.79 µM |
| CCCCCCc1nc2nc(Cl)c(Cl)nc2[nH]1 | 4.01 µM | > 100 µM | – | – | > 100 µM | > 100 µM | 5.06 µM | > 100 µM | > 100 µM | 8.68 µM | > 100 µM | 18.9 µM | > 100 µM | 4.68 µM | > 100 µM | – | 4.26 µM | > 100 µM | > 100 µM |
| O=C1OC(c2ccccc2)(c2cc(Br)c(O)c(Br)c2)c2ccccc21 (stereo not given) | 18.1 µM | 36.4 µM | – | – | > 100 µM | 36.8 µM | 25.8 µM | 76.2 µM | > 100 µM | 22.6 µM | 77.1 µM | 33.6 µM | > 100 µM | 35.6 µM | > 100 µM | – | 50 µM | 18.6 µM | 28.8 µM |
| CCOC(=O)[C@@H](C)C[C@H](Cc1ccccc1)NC(=O)c1csc([C@@H](C[C@H](C(C)C)N(C)C(=O)[C@H](CC)NC(=O)[C@H]2CCCCN2C)OC(C)=O)n1 | < 0.00167 µM | 0.00453 µM | – | – | > 16.7 µM | 0.00762 µM | 0.00628 µM | > 16.7 µM | > 16.7 µM | < 0.00167 µM | 0.00169 µM | 0.00193 µM | > 16.7 µM | < 0.00167 µM | > 16.7 µM | – | 0.00515 µM | 0.00171 µM | < 0.027 µM |
| OCC1OC(n2cnc3c(Cl)nc(Cl)cc32)C(O)C1O (stereo not given) | > 100 µM | > 100 µM | – | – | > 100 µM | > 100 µM | > 100 µM | > 100 µM | > 100 µM | > 100 µM | > 100 µM | > 100 µM | > 100 µM | > 100 µM | > 100 µM | – | > 100 µM | > 100 µM | > 100 µM |
